ChEMBL document CHEMBL3430912, “GSK Tres Cantos Anti-Kinetoplastid Screening (TCAKS) Data”

What was measured:
[1] = test system: Trypanosoma brucei brucei; test: GSK_TCAKS: pIC50 Trypanosoma brucei viability assay using luminiscence. Assay plates (1536-well) were prepared. T. brucei cultures were harvested and counted in a CASY cell counter. A parasite suspension was prepared at a final concentration of 5 * 10^4 cells/mL in complete HMI9 medium and 6uL was dispensed to all wells containing compounds using a Multidrop Combi dispenser. 6uL of HMI9 media with 0.4% DMSO were dispensed to control columns. Plates were incubated for 24 h at 37C, 5% CO2 then tempered for 10 min at room temperature. ATP content was quantified by adding 4 uL of CellTiter-Glo Reagent (Promega) according to the manufacturer's instructions. Luminescence was measured using a ViewLux.; assay type: functional, organism-based; settings: Lister 427, CASY
[2] = molecular target: Sterol 14-alpha demethylase (Trypanosoma cruzi (strain CL Brener), UniProt Q7Z1V1); test: GSK_TCAKS: pIC50 CYP51 from Trypanosoma cruzi.; assay type: functional
Sterol 14-alpha demethylase, sequence (Q7Z1V1 whole entry): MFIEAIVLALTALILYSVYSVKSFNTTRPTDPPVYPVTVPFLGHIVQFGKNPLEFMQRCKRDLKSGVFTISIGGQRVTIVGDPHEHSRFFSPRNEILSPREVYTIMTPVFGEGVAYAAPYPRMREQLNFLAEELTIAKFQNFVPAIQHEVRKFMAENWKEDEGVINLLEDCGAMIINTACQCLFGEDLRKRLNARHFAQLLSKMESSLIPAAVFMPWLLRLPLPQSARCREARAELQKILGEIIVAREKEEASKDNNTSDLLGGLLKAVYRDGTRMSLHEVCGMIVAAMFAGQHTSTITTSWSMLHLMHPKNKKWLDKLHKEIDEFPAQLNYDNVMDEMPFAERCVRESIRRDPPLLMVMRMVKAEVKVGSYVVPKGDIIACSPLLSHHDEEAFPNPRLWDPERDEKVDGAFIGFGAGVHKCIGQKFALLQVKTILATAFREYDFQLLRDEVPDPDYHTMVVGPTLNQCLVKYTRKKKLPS

[3] = GSK_TCAKS: pIC50 HepG2 human cell line viability assay using luminiscence. […] Seeding density was checked to ensure that new mono-layers were not more than 50% confluent at the time of harvesting. Cell suspension was added to 500 mL of the same medium at a final density of 1.2 * 10^5 cells/mL. This cell suspension was dispensed (25 uL, 3000 cells per well) into 384-well clear-bottom plates using a Multidrop Combi dispenser. Prior to addition of the cell suspension, the screening compounds (250 nL) were pre-dispensed into the plates with an Echo liquid handler. Plates were incubated for 48 h at 37C, 5% CO2. After incubation, plates equilibrated at room temperature for 30 min before proceeding to develop the luminescent signal. The signal developer, CellTiter-Glo Reagent, was allowed to equilibrate at room temperature for 30 min and added to the plates (25uL per well) using a Multidrop Combi dispenser. Plates were left for 10 min at room temperature for stabilization and then read using a ViewLux.; assay type: toxicity, cell-based
[4] = test system: Trypanosoma brucei brucei; test: GSK_TCAKS: pIC50 Trypanosoma brucei viability assay using fluorescence intensity. Assay plates (1536-well) were prepared by dispensing 25nL of compound solution per well using an Echo acoustic dispenser (Labcyte).; assay type: functional, organism-based; settings: Lister 427, 2 h
[5] = test system: Trypanosoma cruzi; test: (§1) GSK_TCAKS: pIC50 Trypanosoma cruzi Imaging: Amastigotes/Cell. […] Cells were then washed once with PBS before infection. T. cruzi trypomastigotes, collected at days 5 to 8 after infection from LLC-MK2 parasite infected cultures, were allowed to swim out for 4h at 37C from a centrifuged pellet (2,500 rpm/10 min/room temperature). Trypomastigotes were then collected and counted in a CASY Cell Counter. Trypomastigotes, in supplemented DMEM, were added to H9c2 cultures in a multiplicity of infection of 1 and incubated for 18 h. Cells were washed once with PBS before incubation of the infected H9c2 monolayer with trypsin (Life-Technologies) to detach cells from the flask. Cells were counted in a CASY Cell Counter using a 150 um capillary and their density set at 5 * 10^4 cells per mL in supplemented assay DMEM. Infected H9c2 were dispensed into 384-well poly-lysine coated assay plates at 50uL per well using a Multidrop Combi dispenser. After seeding them, the plates were incubated at 37C, 5% CO2 for 72h. Cultures were then fixed and stained by addition of 50 uL of a solution containing 8% formaldehyde and 4 uM DRAQ5 DNA dye (BioStatus, UK) per well. […] Five images were collected per well for reliable statistical analysis. Automated image analysis was performed with a script developed on Acapella High Content Imaging and Analysis Software (PerkinElmer). Output: number of amastigotes per cell as infection level measurement.; assay type: functional, organism-based, Rattus norvegicus; settings: H9c2, 4 h
[6] = test system: Leishmania donovani; test: GSK_TCAKS: pIC50 Leishmania donovani viability assay using fluorescence intensity. Assay plates (1536-well) were prepared by adding 30nL per well of compound. For single shot assay, the final compound concentration was 5uM. […] Briefly, eGFP LdBOB axenic amastigotes were harvested, fixed and counted in a CASY cell counter (Roche-Applied Science). A final concentration of 1.5 * 10^5 cells per well were prepared in amastigote media containing 500 U/mL penicillin/streptomycin (Invitrogen) and 6uL was dispensed to each experimental well using a Multidrop Combi dispenser (Thermo Scientific). 6uL of assay media was dispensed to control columns used as reference for 100% compound response. Following incubation for 72 h at 37C, 5% CO2, 2 uL of resazurin was added to each well at a final concentration of 0.5 mM in phosphate buffered saline (PBS) with IGEPAL (Sigma-Aldrich), 0.05% (v/v).; assay type: functional, organism-based
[7] = test system: Leishmania donovani; test: (§2) GSK_TCAKS: pIC50 Leishmania donovani Imaging: Infected Macrophages. Assay plates (384-well) were prepared by adding 250nL of compound to each well. For single shot assay, the final compound concentration was 5 uM. […] Automated image analysis was performed with a script developed on Acapella High Content Imaging and Analysis Software (PerkinElmer). Output: Percent of infected macrophage cells were reported for each well.; assay type: functional, organism-based, Homo sapiens; settings: THP-1
[8] = test system: Trypanosoma cruzi; test: as §1, with “H2C9” for “Trypanosoma cruzi”, “H9c2 Host Cardiomyocytes.” for “Amastigotes/Cell.”, “Number” for “number”, “H9c2 Host Cardiomyocytes nuclei to determine drug-related cytotoxicity.” for “amastigotes per cell as infection level measurement.”; assay type: functional, organism-based, Rattus norvegicus; settings: H9c2, 4 h
[9] = test system: Leishmania donovani; test: as §2, with “Amastigotes/Macrophages.” for “Infected Macrophages.”, “Average number” for “Percent”, “amastigotes per” for “infected”, “cell” for “cells”; assay type: functional, organism-based, Homo sapiens; settings: THP-1
[10] = test system: Leishmania donovani; test: as §2, with “THP-1 Host” for “Infected”, “THP-1 cell count” for “Percent of infected macrophage cells”; assay type: functional, organism-based, Homo sapiens
[11] = test system: Trypanosoma cruzi; test: GSK_TCAKS: pIC50 Trypanosoma cruzi viability assay using beta-GAL activity. This assay was run at single shot at 5uM compound concentration per well. The biological reagents consisted of NIH-3T3 host cells and trypomastigotes parasitic cells; both cell types were set to a 3.3 * 10^5 cells/mL dilution in assay DMEM by means of a CASY cell counter device using a 60um capillary. 6 uL of the mixture were dispensed per well (about 1 * 10^3 host-cells and 1 * 10^3 parasites) with a Multidrop Combi dispenser. […] In all wells, the percentage of DMSO never exceeded 0.5%. Plates incubated for four days at 37C, 5% CO2. The substrate used for the assay fluorescence intensity (FLINT) readout was resorufin-beta-D-galactopiranoside (Sigma-Aldrich) at 5uM per well. It was diluted in PBS supplemented with the soft detergent Igepal (Fluka).; assay type: functional, organism-based, Mus musculus; settings: Tulahuen, NIH3T3
[12] = test system: Trypanosoma cruzi; test: GSK_TCAKS: pIC50 Trypanosoma cruzi Imaging: Infected Cells. […] Cells were then washed once with PBS before infection. T. cruzi trypomastigotes, collected at days 5 to 8 after infection from LLC-MK2 parasite infected cultures, were allowed to swim out for 4h at 37C from a centrifuged pellet (2,500 rpm/10 min/room temperature). Trypomastigotes were then collected and counted in a CASY Cell Counter. Trypomastigotes, in supplemented DMEM, were added to H9c2 cultures in a multiplicity of infection of 1 and incubated for 18 h. Cells were washed once with PBS before incubation of the infected H9c2 monolayer with trypsin (Life-Technologies) to detach cells from the flask. Cells were counted in a CASY Cell Counter using a 150 um capillary and their density set at 5 * 10^4 cells per mL in supplemented assay DMEM. Infected H9c2 were dispensed into 384-well poly-lysine coated assay plates at 50uL per well using a Multidrop Combi dispenser. After seeding them, the plates were incubated at 37C, 5% CO2 for 72h. Cultures were then fixed and stained by addition of 50 uL of a solution containing 8% formaldehyde and 4 uM DRAQ5 DNA dye (BioStatus, UK) per well. […] Five images were collected per well for reliable statistical analysis. Automated image analysis was performed with a script developed on Acapella High Content Imaging and Analysis Software (PerkinElmer). Output: percentage of infected cells per well as a second infection marker.; assay type: functional, organism-based, Rattus norvegicus; settings: H9c2, 4 h
[13] = test system: NIH3T3; test: GSK_TCAKS: pIC50 NIH 3T3 cell line viability assay using luminiscence. Tissue culture surface treated assay plates (1536-well) were used. […] The 100% cells survival control was determined exposing the host-cells to a 0.5% DMSO concentration, whereas the 100% toxicity control was achieved by seeding the cells in presence of Amphotericin B at 50uM. Plates were incubated for four days at 37C, 5% CO2. The assay readout was developed by addition of 5uL of CellTiter-Glo Reagent following the manufacturer's instructions. Luminiscence was measured using a ViewLux.; assay type: functional, cell-based; settings: Mus musculus, NIH3T3, 96 h

O=C(c1cccc(Cl)c1Cl)N1CCn2c1nc(-c1ccncc1)cc2=O
IC50 [1]: 31.6 µM | IC50 [2]: 0.0631 µM | IC50 at 48 h [3]: > 100 µM | IC50 [4]: 15.8 µM | IC50 [5]: 0.316 µM | IC50 [6]: 50.1 µM | IC50 [7]: > 50.1 µM | IC50 [8]: > 50.1 µM | IC50 [9]: 31.6 µM | IC50 [10]: > 50.1 µM | IC50 [11]: 0.178 µM | IC50 [12]: 0.316 µM | IC50 [13]: 20 µM

CS(=O)(=O)c1cccc(-c2cnc(N)c3c(-c4ccc(CO)cc4)csc23)c1
IC50 [1]: 5.01 µM | IC50 [2]: 3.16 µM | IC50 at 48 h [3]: > 100 µM | IC50 [4]: 2 µM | IC50 [5]: 0.316 µM | IC50 [6]: 39.8 µM | IC50 [7]: 10 µM | IC50 [8]: > 50.1 µM | IC50 [9]: 7.94 µM | IC50 [10]: > 50.1 µM | IC50 [11]: 0.794 µM | IC50 [12]: 0.631 µM | IC50 [13]: 25.1 µM

O=C(NCCc1ccccn1)C(c1cn[nH]c1)N1CCN(c2ccc(Cl)c(Cl)c2)CC1 (centres undefined)
IC50 [1]: > 39.8 µM | IC50 [2]: 0.126 µM | IC50 at 48 h [3]: > 100 µM | IC50 [4]: 12.6 µM | IC50 [5]: 0.126 µM | IC50 [6]: 2.51 µM | IC50 [7]: > 50.1 µM | IC50 [8]: > 50.1 µM | IC50 [9]: 20 µM | IC50 [10]: > 50.1 µM | IC50 [11]: 0.1 µM | IC50 [12]: 0.158 µM | IC50 [13]: 31.6 µM

COc1ccc(-c2ccc3nnc(-c4ccc(O)c(OC)c4)n3c2)cn1
IC50 [1]: 2.51 µM | IC50 [2]: > 100 µM | IC50 at 48 h [3]: > 100 µM | IC50 [4]: 2 µM | IC50 [5]: 2 µM | IC50 [6]: 3.98 µM | IC50 [7]: > 50.1 µM | IC50 [8]: > 50.1 µM | IC50 [9]: > 50.1 µM | IC50 [10]: > 50.1 µM | IC50 [11]: 1.26 µM | IC50 [12]: 3.16 µM | IC50 [13]: 50.1 µM

COc1cc(-c2nc(N3CCOCC3)sc2-c2ccnc(NC3CCOCC3)n2)ccc1Cl
IC50 [1]: > 39.8 µM | IC50 [2]: > 100 µM | IC50 at 48 h [3]: > 100 µM | IC50 [4]: 15.8 µM | IC50 [5]: 0.1 µM | IC50 [6]: > 50.1 µM | IC50 [7]: > 50.1 µM | IC50 [8]: > 50.1 µM | IC50 [9]: 0.02 µM | IC50 [10]: > 50.1 µM | IC50 [11]: 0.251 µM | IC50 [12]: 0.158 µM | IC50 [13]: > 50.1 µM

CN(C)c1ncc(-c2cncn2CCOc2ccc(Cl)cc2)cn1
IC50 [1]: > 39.8 µM | IC50 [2]: 0.0501 µM | IC50 at 48 h [3]: > 100 µM | IC50 [4]: > 39.8 µM | IC50 [5]: 0.2 µM | IC50 [6]: > 50.1 µM | IC50 [7]: > 50.1 µM | IC50 [8]: > 50.1 µM | IC50 [9]: > 50.1 µM | IC50 [10]: > 50.1 µM | IC50 [11]: 0.224 µM | IC50 [12]: 0.251 µM | IC50 [13]: 39.8 µM

CCC(c1ccc(F)cc1)n1cncc1-c1cnn(C)c1 (centres undefined)
IC50 [1]: > 39.8 µM | IC50 [2]: 0.0794 µM | IC50 at 48 h [3]: > 100 µM | IC50 [4]: > 39.8 µM | IC50 [5]: 0.316 µM | IC50 [6]: > 50.1 µM | IC50 [7]: > 50.1 µM | IC50 [8]: > 50.1 µM | IC50 [9]: > 50.1 µM | IC50 [10]: > 50.1 µM | IC50 [11]: 0.2 µM | IC50 [12]: 0.316 µM | IC50 [13]: 25.1 µM

O=C(Nc1ncc([N+](=O)[O-])s1)C1CC1
IC50 [1]: 39.8 µM | IC50 [2]: > 100 µM | IC50 at 48 h [3]: > 100 µM | IC50 [4]: 7.94 µM | IC50 [5]: 0.398 µM | IC50 [6]: 39.8 µM | IC50 [7]: > 50.1 µM | IC50 [8]: > 50.1 µM | IC50 [9]: > 50.1 µM | IC50 [10]: > 50.1 µM | IC50 [11]: 0.398 µM | IC50 [12]: 1 µM | IC50 [13]: 31.6 µM
